Read-outs that look alike come from different tables or passages of the source.
Biological target: T1, 5-HT1D-like receptor (rabbit isolated saphenous vein) (Oryctolagus cuniculus, UniProt P49144)
T1 construct: contracting the rabbit saphenous vein; from tissue; host or cells: rabbit saphenous vein rings, endothelium removed
Test: Agonist Assay: contraction of the rabbit isolated saphenous vein (5-HT1D-like receptor agonist activity)
Type: cell-based, rabbit (male New Zealand White)

T1 sequence (P49144 whole entry): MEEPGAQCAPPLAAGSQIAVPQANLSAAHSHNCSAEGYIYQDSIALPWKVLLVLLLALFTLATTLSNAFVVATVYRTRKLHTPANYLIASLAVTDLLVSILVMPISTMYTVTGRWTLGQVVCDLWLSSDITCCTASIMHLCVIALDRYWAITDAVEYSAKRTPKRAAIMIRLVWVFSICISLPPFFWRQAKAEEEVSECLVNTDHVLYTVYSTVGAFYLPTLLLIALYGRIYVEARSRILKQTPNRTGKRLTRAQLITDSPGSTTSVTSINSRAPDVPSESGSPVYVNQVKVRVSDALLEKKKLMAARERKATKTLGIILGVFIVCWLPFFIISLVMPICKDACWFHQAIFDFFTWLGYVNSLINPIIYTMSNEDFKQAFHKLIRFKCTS

SMILES	EC50	EC50 (contraction of rabbit isolated saphenous vein, concentration causing 50% of the maximum contraction effected by the compound, prazosin, idazoxan and indomethacin 1 μM each, 37° C., pH 7.4, read-out: EC50)
C=Cc1ccc2[nH]cc(CCN(C)C)c2c1 [Example 7a, 3-[2-(N,N-Dimethylamino)ethyl]-5-vinyl-1H-indole]	130 nM	
C=Cc1ccc2[nH]cc(CCN3CCCC3)c2c1 [Example 7b, 3-[2-(N-Pyrrolidinyl)ethyl]-5-vinyl-1H-indole]	5800 nM	
C=Cc1ccc2[nH]cc(C[C@H]3CCCN3C)c2c1 [Example 7c, (R)-3-[(N-Methylpyrrolidin-2-yl)methyl]-5-vinyl-1H-indole]	80 nM	
C=Cc1ccc2[nH]cc(C3CCN(C)C3)c2c1 (stereo not shown) [Example 7d, 3-(N-Methylpyrrolidin-3-yl)-5-vinyl-1H-indole]		180 nM
